{
  "source": "patent US11053205B2",
  "about": "“Phenazine derivatives as antimicrobial agents” (University of Florida Research Foundation, Incorporated, priority 2017, dated 2021)",
  "key": {"MRSE 35984": {"tested_on": "MRSE 35984", "assay": "MIC, broth microdilution (CLSI)", "conditions": "16 to 18 hours at 37° C."}, "VRE 700221": {"tested_on": "VRE 700221", "assay": "MIC, broth microdilution (CLSI)", "conditions": "16 to 18 hours at 37° C."}, "MRSA BAA-1707": {"tested_on": "MRSA BAA-1707", "assay": "MIC, broth microdilution (CLSI)", "conditions": "16 to 18 hours at 37° C.; 0.10 = lowest concentration tested"}, "MRSA BAA-1707 biofilms": {"tested_on": "MRSA BAA-1707 biofilms", "assay": "Calgary Biofilm Device (CBD) assay, MBC/MBEC", "conditions": "for MRSA BAA-1707 MBEC / MRSA BAA-1707 MBC: CBD; for MRSA BAA-1707 MBEC: biofilm eradication; for MRSA BAA-1707 MBC: planktonic killing"}, "MRSA-2 biofilms": {"tested_on": "MRSA-2 biofilms", "assay": "Calgary Biofilm Device (CBD) assay, MBC/MBEC", "conditions": "for MRSA-2 MBEC: biofilm eradication"}, "MRSE 35984 biofilms": {"tested_on": "MRSE 35984 biofilms", "assay": "Calgary Biofilm Device (CBD) assay, MBC/MBEC", "conditions": "CBD; for MRSE 35984 MBEC: biofilm eradication; for MRSE 35984 MBC: planktonic killing"}, "VRE 700221 biofilms": {"tested_on": "VRE 700221 biofilms", "assay": "Calgary Biofilm Device (CBD) assay, MBC/MBEC", "conditions": "CBD"}},
  "note": "Like-named read-outs stand apart in the source and are kept apart here. Marks after values point to notes of the source that are not given here.",
  "data": [
    {"compound": "CCc1ccc2nc3c(O)c(Br)cc(Br)c3nc2c1", "note": "[53A]", "values": [
      {"measurement": "IC50", "setting": "HeLa cells", "value": "> 50", "unit": "µM"}
    ]},
    {"compound": "Cc1ccc2nc3c(Br)cc(Br)c(O)c3nc2c1C", "note": "[Compound 57A]", "values": [
      {"measurement": "MRSE 35984 MIC", "setting": "MRSE 35984", "value": ">100", "unit": "µM"},
      {"measurement": "VRE 700221 MIC", "setting": "VRE 700221", "value": ">100", "unit": "µM"},
      {"measurement": "MRSA BAA-1707 MIC", "setting": "MRSA BAA-1707", "value": ">100 ^ μM"}
    ]},
    {"compound": "Cc1cc(C)c2nc3c(Br)cc(Br)c(O)c3nc2c1", "note": "[56A]", "values": [
      {"measurement": "IC50", "setting": "HeLa cells", "value": "> 100", "unit": "µM"},
      {"measurement": "MRSA BAA-1707 MBEC", "setting": "MRSA BAA-1707 biofilms", "value": 4.69, "unit": "µM"}
    ]},
    {"compound": "CC1=C(C)C(=O)C(COC(=O)OCOc2c(Br)cc(Br)c3nc4ccccc4nc23)=C(C)C1=O", "note": "[86A]", "values": [
      {"measurement": "MRSA BAA-1707 MIC", "setting": "MRSA BAA-1707", "value": 2.35, "unit": "µM"},
      {"measurement": "MRSA BAA-1707 MBEC", "setting": "MRSA BAA-1707 biofilms", "value": 75, "unit": "µM"}
    ]},
    {"compound": "CC(C)(C)c1ccc2nc3c(O)c(Br)cc(Br)c3nc2c1", "note": "[55A]", "values": [
      {"measurement": "MRSA-2 MBEC", "setting": "MRSA-2 biofilms; CBD", "value": 3.13, "unit": "µM"},
      {"measurement": "IC50", "setting": "HeLa cells", "value": "> 100", "unit": "µM"}
    ]},
    {"compound": "COCCOCCOCCOCCOC(=O)Oc1c(Br)cc(Br)c2nc3cc(Oc4ccccc4)ccc3nc12", "note": "[Compound 78A]", "values": [
      {"measurement": "MRSE 35984 MIC", "setting": "MRSE 35984", "value": "0.1^b μM"},
      {"measurement": "Hemolysis at 200 μM", "setting": "human red blood cells", "value": "≤1", "unit": "%"},
      {"measurement": "VRE 700221 MIC", "setting": "VRE 700221", "value": "0.3^a μM"},
      {"measurement": "MRSA BAA-1707 MIC", "setting": "MRSA BAA-1707", "value": "0.1^b μM"},
      {"measurement": "MRSA BAA-1707 MBEC", "setting": "MRSA BAA-1707 biofilms", "value": 4.69, "unit": "µM"},
      {"measurement": "MRSA BAA-1707 MBC", "setting": "MRSA BAA-1707 biofilms", "value": 18.8, "unit": "µM"}
    ]},
    {"compound": "COCCOCCOCCOCCOC(=O)Oc1c(Br)cc(Br)c2nc3cc(Oc4ccccc4)ccc3nc12", "note": "[78A]", "values": [
      {"measurement": "MRSA BAA-1707 MIC", "setting": "MRSA BAA-1707", "value": 0.1, "unit": "µM"}
    ]},
    {"compound": "Cc1ccc2nc3c(O)c(Br)cc(Br)c3nc2c1", "note": "[52A]", "values": [
      {"measurement": "IC50", "setting": "HeLa cells", "value": "> 100", "unit": "µM"}
    ]},
    {"compound": "CCc1cccc2nc3c(Br)cc(Br)c(O)c3nc12", "note": "[Compound 37]", "values": [
      {"measurement": "MRSE 35984 MIC", "setting": "MRSE 35984", "value": ">100", "unit": "µM"},
      {"measurement": "VRE 700221 MIC", "setting": "VRE 700221", "value": ">100", "unit": "µM"},
      {"measurement": "MRSA BAA-1707 MIC", "setting": "MRSA BAA-1707", "value": ">100", "unit": "µM"}
    ]},
    {"compound": "Cc1cc2nc3c(O)c(Br)cc(Br)c3nc2c(C)c1C", "note": "[Compound 59A]", "values": [
      {"measurement": "MRSE 35984 MIC", "setting": "MRSE 35984", "value": "0.1^b μM"},
      {"measurement": "Hemolysis at 200 μM", "setting": "human red blood cells", "value": 1.3, "unit": "%"},
      {"measurement": "MRSA BAA-1707 MIC", "setting": "MRSA BAA-1707", "value": "0.59^a μM"},
      {"measurement": "MRSA BAA-1707 MBEC", "setting": "MRSA BAA-1707 biofilms", "value": 75, "unit": "µM"},
      {"measurement": "MRSA BAA-1707 MBC", "setting": "MRSA BAA-1707 biofilms", "value": 150, "unit": "µM"},
      {"measurement": "MRSE 35984 MBEC", "setting": "MRSE 35984 biofilms", "value": 5, "unit": "µM"},
      {"measurement": "MRSE 35984 MBC", "setting": "MRSE 35984 biofilms", "value": 25, "unit": "µM"}
    ]},
    {"compound": "CC(=O)N[C@@H](CS)C(=O)O", "note": "[NAC, reference compound]", "values": [
      {"measurement": "VRE 700221 MBEC", "setting": "VRE 700221 biofilms; biofilm eradication", "value": ">2000 />2000 μM"},
      {"measurement": "VRE 700221 MBC", "setting": "VRE 700221 biofilms; planktonic killing", "value": ">2000 />2000 μM"},
      {"measurement": "MRSA-2 MBEC", "setting": "MRSA-2 biofilms; CBD", "value": ">2000/>2000 μM"},
      {"measurement": "MRSA-2 MBC", "setting": "MRSA-2 biofilms; CBD, planktonic killing", "value": ">2000/>2000 μM"},
      {"measurement": "MRSE 35984 MBEC", "setting": "MRSE 35984 biofilms", "value": ">2000/>2000 μM"},
      {"measurement": "MRSE 35984 MBC", "setting": "MRSE 35984 biofilms", "value": ">2000/>2000 μM"}
    ]},
    {"compound": "CCCc1ccc2nc3c(O)c(Br)cc(Br)c3nc2c1", "note": "[54A]", "values": [
      {"measurement": "IC50", "setting": "HeLa cells", "value": "> 50", "unit": "µM"}
    ]},
    {"compound": "Cc1cc2nc3c(O)c(Br)cc(Br)c3nc2c(C)c1C", "note": "[59A]", "values": [
      {"measurement": "IC50", "setting": "HeLa cells", "value": "> 100", "unit": "µM"}
    ]},
    {"compound": "NC(=O)c1cnccn1", "note": "[Pyrazinamide]", "values": [
      {"measurement": "MRSA-2 MBEC", "setting": "MRSA-2 biofilms; CBD", "value": ">2000/>2000 μM"},
      {"measurement": "MBC", "setting": "MRSA-2 biofilms; Staphylococcus aureus, MRSA, read-out: MRSA-2 MBC", "value": "> 2000", "unit": "µM"}
    ]},
    {"compound": "COCCOCCOCCOC(=O)OCOc1c(Br)cc(Br)c2nc3ccccc3nc12", "note": "[Compound 30]", "values": [
      {"measurement": "MRSE 35984 MIC", "setting": "MRSE 35984", "value": ">100", "unit": "µM"},
      {"measurement": "VRE 700221 MIC", "setting": "VRE 700221", "value": ">100", "unit": "µM"},
      {"measurement": "MRSA BAA-1707 MIC", "setting": "MRSA BAA-1707", "value": ">100", "unit": "µM"}
    ]},
    {"compound": "CCc1cccc2nc3c(Br)cc(Br)c(O)c3nc12", "note": "[Compound 58A]", "values": [
      {"measurement": "MRSE 35984 MIC", "setting": "MRSE 35984", "value": ">100", "unit": "µM"},
      {"measurement": "VRE 700221 MIC", "setting": "VRE 700221", "value": ">100", "unit": "µM"},
      {"measurement": "MRSA BAA-1707 MIC", "setting": "MRSA BAA-1707", "value": ">100 ^ μM"}
    ]},
    {"compound": "OC[C@H]1O[C@@H](Oc2c(Br)cc(Br)c3nc4ccccc4nc23)[C@H](O)[C@@H](O)[C@@H]1O", "note": "[Compound 28]", "values": [
      {"measurement": "MRSE 35984 MIC", "setting": "MRSE 35984", "value": ">100", "unit": "µM"},
      {"measurement": "VRE 700221 MIC", "setting": "VRE 700221", "value": ">100", "unit": "µM"},
      {"measurement": "MRSA BAA-1707 MIC", "setting": "MRSA BAA-1707", "value": ">100", "unit": "µM"}
    ]},
    {"compound": "CCN(CC)c1ccc2nc3c(O)c(Br)cc(Br)c3nc2c1Br", "note": "[Compound 35]", "values": [
      {"measurement": "MRSE 35984 MIC", "setting": "MRSE 35984", "value": 0.1, "unit": "µM"},
      {"measurement": "VRE 700221 MIC", "setting": "VRE 700221", "value": 0.30, "unit": "µM"},
      {"measurement": "MRSA BAA-1707 MIC", "setting": "MRSA BAA-1707", "value": 0.15, "unit": "µM"},
      {"measurement": "MRSA BAA-1707 MBEC", "setting": "MRSA BAA-1707 biofilms", "value": 4.69, "unit": "µM"},
      {"measurement": "MRSE 35984 MBEC", "setting": "MRSE 35984 biofilms", "value": 1.56, "unit": "µM"}
    ]},
    {"compound": "CC(=O)NC[C@H]1CN(c2ccc(N3CCOCC3)c(F)c2)C(=O)O1", "note": "[linezolid, reference compound]", "values": [
      {"measurement": "Hemolysis at 200 μM", "setting": "human red blood cells; human, 1 h, 200 μM, pH 7.2", "value": "≤1", "unit": "%"},
      {"measurement": "MRSA BAA-1707 MIC", "setting": "MRSA BAA-1707", "value": "12.5 ^ μM"},
      {"measurement": "MBC", "setting": "MRSA BAA-1707 biofilms; Staphylococcus aureus, read-out: MRSA BAA-1707 MBC", "value": 31.3, "unit": "µM"},
      {"measurement": "biofilm eradication activities against MRSA biofilms", "setting": "MRSA BAA-1707 biofilms; at 2,000 μM (highest concentration tested)", "value": "no biofilm eradication activities"}
    ]},
    {"compound": "COCCOCCOCCOCCOC(=O)Oc1c(Br)cc(Br)c2nc3cc(Cl)ccc3nc12", "note": "[77A]", "values": [
      {"measurement": "MRSA BAA-1707 MIC", "setting": "MRSA BAA-1707", "value": 0.0005, "unit": "µM"}
    ]},
    {"compound": "CCOC(=O)c1ccc2nc3c(O)c(Br)cc(Br)c3nc2c1", "note": "[Compound 38]", "values": [
      {"measurement": "MRSA BAA-1707 MIC", "setting": "MRSA BAA-1707", "value": ">100", "unit": "µM"}
    ]},
    {"compound": "CCOC(=O)c1ccc2nc3c(O)c(Br)cc(Br)c3nc2c1", "note": "[Compound 62A]", "values": [
      {"measurement": "VRE 700221 MIC", "setting": "VRE 700221", "value": "2.35^a μM"}
    ]}
  ]
}
